Read-outs that look alike come from different tables or passages of the source.
What was measured:
[1] = tested on: HCV genotype 1a (H77 strain) replicon in HUH-7 cells; assay: HCV replicon luciferase reporter assay, genotype 1a; assay type: cell-based; details: Hepatitis C virus, Huh-7, 72 h, 3 days incubation, read-out: LE_1a (EC50, range)
In short: (§1)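 Replicon inhibition for both genotypes was measured as Renilla luciferase signal (EnduRen, 7.5 μM final, 2 h) after 3-day, 37° C exposure of replicon-bearing HUH-7 cells in 4% FCS DMEM, 0.5% DMSO. The 1b construct carries S1179I; the 1a H77 construct carries P1496L and S2204I. Twenty-point, 3-fold dilutions were fitted four-parametrically for EC50, and CC50 was taken from multiplexed Cell Titer-Blue.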

[2] = tested on: HCV genotype 1b (Con1) replicon in HUH-7 cells; assay: HCV replicon luciferase reporter assay, genotype 1b; assay type: cell-based; details: Hepatitis C virus, Huh-7, 72 h, 3 days incubation, read-out: LE_1b (EC50, range)
In short: as §1

[3] = HCV genotype 1a replicon luciferase
[4] = HCV genotype 1b replicon luciferase
[5] = GETYPE1A, HCV genotype 1a replicon luciferase
[6] = GETYPE1B, HCV genotype 1b replicon luciferase

Row | SMILES | EC50 [1, 3] | EC50 [2, 4] | also measured
1 | COc1cc2cc(-c3ccc(OC(C)C)cc3)nc(O[C@@H]3C[C@H]4C(=O)N[C@]5(C(=O)NS(=O)(=O)C6CC6)C[C@H]5/C=C\CC[C@H](C)C[C@@H](C)[C@H](NC(=O)O[C@@H]5C[C@@H]6C[C@@H]6C5)C(=O)N4C3)c2cc1F [Compound 3187, (1R,3r,5S)-bicyclo[3.1.0]hexan-3-yl((2R,6S,7R,9S,13aS,14aR,16aS,Z)-14a-((cyclopropylsulfonyl)carbamoyl)-2-((7-fluoro-3-(4-isopropoxyphenyl)-6-methoxyisoquinolin-1-yl)oxy)-7,9-dimethyl-5,16-dioxo-1,2,3,5,6,7,8,9,10,11,13a,14,14a,15,16,16a-hexadecahydrocyclopropa[e]pyrrolo[1,2-a][1,4]diazacyclopentadecin-6-yl)carbamate] | < 5.46 nM | < 5.46 nM | 
2 | COc1ccc2c(O[C@@H]3C[C@H]4C(=O)N[C@]5(C(=O)NS(=O)(=O)C6(C)CC6)C[C@H]5/C=C\CC[C@@H](C)C[C@@H](C)[C@H](NC(=O)OC(C)(C)C(F)(F)F)C(=O)N4C3)ncc(N3CCN(C)CC3)c2c1 [Compound 4013] |  |  | EC50 [1, 5]: < 5.46 nM; EC50 [2, 6]: < 5.46 nM
3 | [2H]C([2H])([2H])C(C)(OC(=O)N[C@@H]1C(=O)N2C[C@H](Oc3nccc4c5c(ccc34)N(C)CCO5)C[C@H]2C(=O)N[C@]2(C(=O)NS(=O)(=O)C3CC3)C[C@H]2/C=C\CC[C@@H](C)C[C@H]1C)C([2H])([2H])[2H] [Compound 5286, 1,1,1,3,3,3-hexadeutero-2-methylpropan-2-yl((2R,6S,7R,9R,13aS,14aR,16aS,Z)-14a-((cyclopropylsulfonyl)carbamoyl)-7,9-dimethyl-2-((4-methyl-3,4-dihydro-2H-[1,4]oxazino[2,3-f]isoquinolin-7-yl)oxy)-5,16-dioxo-1,2,3,5,6,7,8,9,10,11,13a,14,14a,15,16,16a-hexadecahydrocyclopropa[e]pyrrolo[1,2-a][1,4]diazacyclopentadecin-6-yl)carbamate] | < 5.46 nM | < 5.46 nM | 
4 | [2H]C([2H])([2H])C(OC(=O)N[C@@H]1C(=O)N2C[C@H](Oc3nccc4c5c(ccc34)N(C)CCO5)C[C@H]2C(=O)N[C@]2(C(=O)NS(=O)(=O)C3CC3)C[C@H]2/C=C\CC[C@@H](C)C[C@H]1C)(C([2H])([2H])[2H])C(F)(F)F [Compound 5280, 1,1,1,3,3,3-hexadeutero-2-(trifluoromethyl)propan-2-yl((2R,6S,7R,9R,13aS,14aR,16aS,Z)-14a-((cyclopropylsulfonyl)carbamoyl)-7,9-dimethyl-2-((4-methyl-3,4-dihydro-2H-[1,4]oxazino[2,3-f]isoquinolin-7-yl)oxy)-5,16-dioxo-1,2,3,5,6,7,8,9,10,11,13a,14,14a,15,16,16a-hexadecahydrocyclopropa[e]pyrrolo[1,2-a][1,4]diazacyclopentadecin-6-yl)carbamate] | < 5.46 nM | < 5.46 nM | 
5 | [2H]C([2H])([2H])Oc1cnc(O[C@@H]2C[C@H]3C(=O)N[C@]4(C(=O)NS(=O)(=O)C5(C)CC5)C[C@H]4/C=C\CC[C@H](C)C[C@@H](C)[C@H](NC(=O)OC(C([2H])([2H])[2H])(C([2H])([2H])[2H])C(F)(F)F)C(=O)N3C2)c2ccccc12 [Compound 5104, 1,1,1,3,3,3-hexadeutero-2-(trifluoromethyl)propan-2-yl((2R,6S,7R,9S,13aS,14aR,16aS,Z)-7,9-dimethyl-14a-(((1-methylcyclopropyl)sulfonyl)carbamoyl)-5,16-dioxo-2-((4-(trideuteromethoxy)isoquinolin-1-yl)oxy)-1,2,3,5,6,7,8,9,10,11,13a,14,14a,15,16,16a-hexadecahydrocyclopropa[e]pyrrolo[1,2-a][1,4]diazacyclopentadecin-6-yl)carbamate] | < 5.46 nM | < 5.46 nM | 
6 | COc1ccc2c(O[C@@H]3C[C@H]4C(=O)N[C@]5(C(=O)NS(=O)(=O)C6(C)CC6)C[C@H]5/C=C\CC[C@@H](C)C[C@@H](C)[C@H](NC(=O)OC(C)(C)C(F)(F)F)C(=O)N4C3)ncc(N3C[C@@H](C)O[C@@H](C)C3)c2c1 [Compound 4132] |  |  | EC50 [1, 5]: < 5.46 nM; EC50 [2, 6]: < 5.46 nM
7 | [2H]C([2H])([2H])C(OC(=O)N[C@@H]1C(=O)N2C[C@H](Oc3ncc(OC)c4ccccc34)C[C@H]2C(=O)N[C@]2(C(=O)NS(=O)(=O)C3CC3)C[C@H]2/C=C\CC[C@@H](C)C[C@H]1CC)(C([2H])([2H])[2H])C(F)(F)F [Compound 5433] | 0.51 to 1 nM | 0.1 to 0.5 nM | 
8 | COc1ccc2c(O[C@@H]3C[C@H]4C(=O)N[C@]5(C(=O)NS(=O)(=O)C6(CF)CC6)C[C@H]5/C=C\CC[C@@H](C)C[C@@H](C)[C@H](NC(=O)OC(C)(C)C)C(=O)N4C3)nc(OC)cc2c1 [Compound 1125, tert-butyl ((2R,6S,7R,9R,13aS,14aR,16aS,Z)-2-((3,6-dimethoxyisoquinolin-1-yl)oxy)-14a-(((1-(fluoromethyl)cyclopropyl)sulfonyl)carbamoyl)-7,9-dimethyl-5,16-dioxo-1,2,3,5,6,7,8,9,10,11,13a,14,14a,15,16,16a-hexadecahydrocyclopropa[e]pyrrolo[1,2-a][1,4]diazacyclopentadecin-6-yl)carbamate] |  |  | EC50 ([1]; HCV genotype 1a replicon luciferase assay, range class): < 5.46 nM; EC50 ([2]; HCV genotype 1b replicon luciferase assay, range class): < 5.46 nM
9 | CC[C@@H]1C[C@H](C)CC/C=C\[C@@H]2C[C@@]2(C(=O)NS(=O)(=O)C2(C)CC2)NC(=O)[C@@H]2C[C@@H](Oc3nc(-c4ccc(OC(C)C)cn4)cc4cc(OC)ccc34)CN2C(=O)[C@H]1NC(=O)OC(C)(C)C(F)(F)F [Compound 5489, 1,1,1-trifluoro-2-methylpropan-2-yl((2R,6S,7R,9R,13aS,14aR,16aS,Z)-7-ethyl-2-((3-(5-isopropoxypyridin-2-yl)-6-methoxyisoquinolin-1-yl)oxy)-9-methyl-14a-(((1-methylcyclopropyl)sulfonyl)carbamoyl)-5,16-dioxo-1,2,3,5,6,7,8,9,10,11,13a,14,14a,15,16,16a-hexadecahydrocyclopropa[e]pyrrolo[1,2-a][1,4]diazacyclopentadecin-6-yl)carbamate] | 1.01 to 5 nM | 1.01 to 5 nM | 
10 | COc1cc2nc(O[C@@H]3C[C@H]4C(=O)N[C@]5(C(=O)NS(=O)(=O)C6(C)CC6)C[C@H]5/C=C\CC[C@H](C)C[C@@H](C)[C@H](NC(=O)OC(C)(C)C(F)(F)F)C(=O)N4C3)c(C(F)(F)F)nc2cc1F [Compound 4289] |  |  | EC50 [1, 5]: 5.01 to 35 nM; EC50 [2, 6]: 1.01 to 5 nM
11 | CC[C@@H]1C[C@H](C)CC/C=C\[C@@H]2C[C@@]2(C(=O)NS(=O)(=O)C2CC2)NC(=O)[C@@H]2C[C@@H](Oc3ncc(OC)c4ccccc34)CN2C(=O)[C@H]1NC(=O)OC(C)(C)C(F)F [Compound 5537, 1,1-difluoro-2-methylpropan-2-yl((2R,6S,7R,9R,13aS,14aR,16aS,Z)-14a-((cyclopropylsulfonyl)carbamoyl)-7-ethyl-2-((4-methoxyisoquinolin-1-yl)oxy)-9-methyl-5,16-dioxo-1,2,3,5,6,7,8,9,10,11,13a,14,14a,15,16,16a-hexadecahydrocyclopropa[e]pyrrolo[1,2-a][1,4]diazacyclopentadecin-6-yl)carbamate] | 0.51 to 1 nM | 0.1 to 0.5 nM | 

Reference: US9499550B2 (BRISTOL-MYERS SQUIBB COMPANY, priority 2012, dated 2016)
